Our source for the GI50 and TGI values is PubChem BioAssay (NCI).

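Interpolation was linear, between the two tested concentrations surrounding the appropriate level; five concentrations were tested over 48 hours in 96-well plates. The concentration for 50% growth inhibition is given as GI50. The concentration for full growth arrest is given as TGI.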

Test systems include NCI/ADR-RES ovarian; SN12C renal; RPMI-8226 leukemia; OVCAR-8 ovarian; SK-OV-3 ovarian; MCF7 breast; M14 melanoma; MOLT-4 leukemia; KM20L2 colon; LXFL 529 NSCLC.
What all share (assay): DTP human tumour cell line panel, 48 h

Usually GI50 stands for the concentration that inhibits growth by half. Broadly, the TGI is the concentration at which net growth stops. A low value points to greater sensitivity of the cells. On to `COc1ccc(CCN2COc3c([C@@H](C)CCC=C(C)C)ccc(C)c3C2)cc1OC`, for which the GI50 in the experiment with NCI/ADR-RES ovarian was 2.96 µM; in the experiment with SN12C renal, 3.27 µM; in the experiment on RPMI-8226 leukemia, 2.09 µM; in the experiment on OVCAR-8 ovarian it was 4.21 µM; with SK-OV-3 ovarian, 11.8 µM; in the experiment with MCF7 breast it was 3.29 µM. The GI50 in the experiment with M14 melanoma was 1.69 µM; in the experiment on MOLT-4 leukemia it was 3.69 µM. In addition, the TGI with NCI/ADR-RES ovarian was found to be 9.51 µM; in the experiment on SN12C renal, 13.5 µM; in the experiment on RPMI-8226 leukemia, 7.67 µM; with OVCAR-8 ovarian, 20.2 µM; in the experiment with SK-OV-3 ovarian, 31.1 µM; in the experiment on MCF7 breast it was 11 µM. The TGI in the experiment with M14 melanoma was 3.18 µM; with MOLT-4 leukemia, > 100 µM.
`CCCCON(OC(=O)c1ccc2ccc3cccc4ccc1c2c34)C(C)=O`: the GI50 in the experiment on NCI/ADR-RES ovarian is 21.9 µM; with SN12C renal, 19.6 µM; in the experiment with RPMI-8226 leukemia, 25.5 µM; in the experiment with OVCAR-8 ovarian, 28.9 µM; in the experiment with SK-OV-3 ovarian, 40.1 µM; in the experiment with MCF7 breast, 26.3 µM. In addition, the results for the GI50 in the experiment on M14 melanoma and in the experiment on MOLT-4 leukemia were 22.7 µM and 17.4 µM, respectively. Besides, the TGI in the experiment on NCI/ADR-RES ovarian is 60.7 µM; in the experiment with SN12C renal, 39.2 µM; in the experiment on RPMI-8226 leukemia, 80.4 µM; in the experiment with OVCAR-8 ovarian it was > 100 µM; with SK-OV-3 ovarian, > 100 µM; in the experiment with MCF7 breast, 68.9 µM. The TGI in the experiment on M14 melanoma was determined as 55.3 µM; in the experiment on MOLT-4 leukemia, 37.2 µM.
Consider `O=C(CCC1OCCO1)Nc1cc(NCc2ccccc2)ccc1OCc1ccccc1`, for which the TGI is > 100 µM with NCI/ADR-RES ovarian; > 100 µM in the experiment with SN12C renal; > 100 µM with RPMI-8226 leukemia; 58.6 µM in the experiment on OVCAR-8 ovarian; > 100 µM in the experiment on SK-OV-3 ovarian; > 100 µM in the experiment on MCF7 breast. In addition, the results for the TGI in the experiment on M14 melanoma and with MOLT-4 leukemia were > 100 µM and 81.5 µM, respectively.
As for `Cc1[nH]c2ccccc2c(=O)c1CC=C(Cl)Cl`, the GI50 is 44.2 µM with NCI/ADR-RES ovarian; 50.3 µM in the experiment with SN12C renal; 84.4 µM in the experiment with RPMI-8226 leukemia; 66.6 µM in the experiment with OVCAR-8 ovarian; 24.2 µM in the experiment on SK-OV-3 ovarian; 58 µM with MCF7 breast. The GI50 in the experiment on M14 melanoma was > 100 µM; with MOLT-4 leukemia it was 82.3 µM. Besides, the TGI in the experiment on NCI/ADR-RES ovarian was > 100 µM; with SN12C renal, > 100 µM; in the experiment on RPMI-8226 leukemia, > 100 µM; in the experiment with OVCAR-8 ovarian it was > 100 µM; in the experiment with SK-OV-3 ovarian, 55.6 µM; in the experiment with MCF7 breast it was > 100 µM. Further, the TGI with M14 melanoma and in the experiment on MOLT-4 leukemia was > 100 µM throughout.
In the case of `N#CC1CC2(C1)OCCS2` (configuration not stated), the TGI in the experiment with SN12C renal, in the experiment with RPMI-8226 leukemia, in the experiment with OVCAR-8 ovarian, in the experiment with M14 melanoma, in the experiment on KM20L2 colon and in the experiment with LXFL 529 NSCLC was > 100 µM throughout. Further, the TGI with MOLT-4 leukemia was > 100 µM.
As to `COc1cc2[nH]c(C(=O)c3cc(OC)c(OC)c(OC)c3)c(N)c2cc1C#CC1CC1`, the GI50 was 2.3 µM with NCI/ADR-RES ovarian; 7.69 µM in the experiment with SN12C renal; 3.28 µM with RPMI-8226 leukemia; 5.3 µM with OVCAR-8 ovarian; 3.42 µM with SK-OV-3 ovarian; 1.85 µM with MCF7 breast. The GI50 in the experiment with M14 melanoma is 1.93 µM; in the experiment with MOLT-4 leukemia, 4.32 µM. Also, the TGI in the experiment with NCI/ADR-RES ovarian was 14.4 µM; in the experiment with SN12C renal, > 100 µM; in the experiment with RPMI-8226 leukemia it was 42.5 µM; with OVCAR-8 ovarian, > 100 µM; with SK-OV-3 ovarian, > 100 µM; in the experiment on MCF7 breast, > 100 µM. The TGI in the experiment with M14 melanoma and in the experiment on MOLT-4 leukemia was > 100 µM in each case.
As to `C[C@H](O)C(=O)N1CCC(CCn2c(Sc3cc4c(cc3Br)OCO4)nc3c(N)ncnc32)CC1`, the GI50 was 13.9 µM with NCI/ADR-RES ovarian; 0.725 µM in the experiment with SN12C renal; 4.19 µM in the experiment on RPMI-8226 leukemia; 0.827 µM with OVCAR-8 ovarian; 0.48 µM in the experiment on SK-OV-3 ovarian; 0.368 µM in the experiment with MCF7 breast. Moreover, the GI50 in the experiment with M14 melanoma is 0.965 µM; in the experiment on MOLT-4 leukemia, 0.55 µM. In addition, the TGI in the experiment with NCI/ADR-RES ovarian, in the experiment with SN12C renal, with RPMI-8226 leukemia, with OVCAR-8 ovarian, with SK-OV-3 ovarian and in the experiment on MCF7 breast was > 100 µM throughout. Also, the results for the TGI with M14 melanoma and with MOLT-4 leukemia were > 100 µM and 11.8 µM, respectively.
Regarding `CC(C)(C[C@H]1CN(S(=O)(=O)c2cccc(C(F)(F)F)c2)c2cc(-c3cc(F)cc(OC(F)F)c3)ccc2O1)C(=O)O`, the GI50 in the experiment with NCI/ADR-RES ovarian was 5.07 µM; with SN12C renal, 11.3 µM; in the experiment with RPMI-8226 leukemia, 3.45 µM; in the experiment on OVCAR-8 ovarian it was 12.1 µM; with SK-OV-3 ovarian it was 13.2 µM; with MCF7 breast, 3.98 µM. In addition, the GI50 in the experiment with M14 melanoma was 4.59 µM; in the experiment with MOLT-4 leukemia it was 5.88 µM. Also, the TGI was found to be 30.9 µM with NCI/ADR-RES ovarian; 28 µM in the experiment on SN12C renal; 17.6 µM in the experiment with RPMI-8226 leukemia; 35.5 µM in the experiment on OVCAR-8 ovarian; 27.4 µM with SK-OV-3 ovarian; 22.4 µM in the experiment with MCF7 breast. Besides, the TGI with M14 melanoma was found to be 17.5 µM; in the experiment on MOLT-4 leukemia it was 29.7 µM.
`O=c1cccc(C#CC#CC2=CCCCC2)o1`: the GI50 in the experiment on NCI/ADR-RES ovarian was 6.99 µM; in the experiment with SN12C renal it was 0.516 µM; in the experiment with RPMI-8226 leukemia, 2.19 µM; in the experiment on OVCAR-8 ovarian it was 2.21 µM; in the experiment with SK-OV-3 ovarian, 10.5 µM; in the experiment with MCF7 breast, 5.04 µM. Further, the GI50 was 2.13 µM in the experiment with M14 melanoma and 0.309 µM with MOLT-4 leukemia. Besides, the TGI in the experiment with NCI/ADR-RES ovarian turned out to be 20.4 µM; in the experiment on SN12C renal it was 1.48 µM; with RPMI-8226 leukemia, 5.83 µM; in the experiment with OVCAR-8 ovarian it was 6.32 µM; with SK-OV-3 ovarian it was 27.9 µM; with MCF7 breast, 13.4 µM. Besides, the total growth inhibition concentration (TGI) was 6.34 µM in the experiment with M14 melanoma and > 33 µM in the experiment with MOLT-4 leukemia.
